Laboratory results as given in article PMC3493468 (Chembiochem : a European journal of chemical biology, 2011).
One block for each compound: values may come before it. Peptide text beside a SMILES is read from it. * marks the point of attachment. Palmitoyl = CCCCCCCCCCCCCCCC(=O)*

Tests used:
[1] = tested on: IGF-1 induced activity of AKT; assay: IGF-1-induced AKT activation; type: cell-based; details: MCF-7 cells, compound 1 hour, then IGF-1 25 ng/ml for 20 min; Figure 5
SMO [2] = details: cited from earlier work
[3] = Biodistribution of 3H-labeled lipopeptide; type: in vivo, mice; details: subcutaneous, topical, peritoneal or oral administration; Supplementary Figure S6
SMO [4] = assay: Inhibition of SMO function / Hedgehog pathway; type: cell-based

Compound: CCCCCCCCCCCCCCCC(=O)N[C@@H](CCCNC(=N)N)C(=O)N[C@@H](CC(N)=O)C(=O)N[C@@H](CC(N)=O)C(=O)N[C@@H](CO)C(=O)N[C@@H](CCCNC(=N)N)C(=O)N[C@@H](CC(C)C)C(=O)NCC(=O)N[C@@H](CC(N)=O)C(=O)NCC(=O)N[C@H](C(=O)N[C@@H](CC(C)C)C(=O)N[C@@H](Cc1ccc(O)cc1)C(N)=O)C(C)C [Peptide 16] (Palmitoyl-RNNSRLGNGVLY-NH2)
- inhibition of IGF-1 induced activity of AKT [1]: inhibited IGF-1 induced activity of AKT in a dose-dependent manner

Compound: Ac-(ε-Pal)-KLTYAWHTSFKAL-NH2 [SMOi2-43]
- in vitro activity as inhibitor of the Hedgehog pathway (SMO [2]): potent inhibitor

- entry into circulation [3]: did not enter the circulation
Compound: Ac-AKFSTHWAYTLK-(ε-Pal), all-D [SMOi2-17]
- in vitro activity as inhibitor of the Hedgehog pathway (SMO [2]): subnanomolar range

Compound: Ac-LTYAWHTSFKAL-NH2 [SMOi2-9]
- inhibition of SMO function (SMO [4]): inactive
